This is an account of results in ChEMBL document CHEMBL1148548, “New 7,8-ethylenedioxy-2,3-benzodiazepines as noncompetitive AMPA receptor antagonists” (Bioorg Med Chem Lett, 2006).

The test system of test [1] is Mus musculus. The test can be described thus: Effect on tonic phase of audiogenic seizures in DBA/2 mice at 3.3-200 umol/kg, ip. In kind it is functional. The settings on record: DBA/2, ip.
In test [2] the test system is Mus musculus. Description: Effect on clonic phase of audiogenic seizures in DBA/2 mice at 3.3-200 umol/kg, ip. It is filed as functional. The conditions noted are these: DBA/2, ip.
In test [3] the target is T1, Glutamate receptor ionotropic, AMPA (Rattus norvegicus, UniProt P19490+P19491+P19492+P19493). Description: Ability to inhibit kainate-induced increase of calcium in rat cerebellar granule cells expressing AMPA receptor. In kind it is functional.
In test [4] the test system is Mus musculus. Description: Effect on locomotion in mice assessed by rotarod test at 3.3-200 umol/kg, ip. It is filed as functional.
Test [5] concerns Mus musculus. The test can be described thus: Protective index [PI = TD50/ED50 (from clonic phase of the audiogenic seizures)] in mice at 3.3-200 umol/kg, ip. In kind it is functional.
The target of test [6] is T1, Glutamate receptor ionotropic, AMPA. The test can be described thus: Displacement of [3H]CP-526427 from AMPA receptor in rat forebrain membranes. In kind it is cell membranes, Membrane. In general terms: In a radioligand displacement assay an active substance lowers the binding of a labelled ligand.
Test [7] deals with Glutamate receptor ionotropic, kainate 1 (Rattus norvegicus, UniProt P22756). Description: Ability to inhibit domoic acid-induced increase of calcium in rat HEK293 cells expressing GluR5. It is filed as functional, cell-based.
Sequence of Glutamate receptor ionotropic, kainate 1 (P22756 whole entry): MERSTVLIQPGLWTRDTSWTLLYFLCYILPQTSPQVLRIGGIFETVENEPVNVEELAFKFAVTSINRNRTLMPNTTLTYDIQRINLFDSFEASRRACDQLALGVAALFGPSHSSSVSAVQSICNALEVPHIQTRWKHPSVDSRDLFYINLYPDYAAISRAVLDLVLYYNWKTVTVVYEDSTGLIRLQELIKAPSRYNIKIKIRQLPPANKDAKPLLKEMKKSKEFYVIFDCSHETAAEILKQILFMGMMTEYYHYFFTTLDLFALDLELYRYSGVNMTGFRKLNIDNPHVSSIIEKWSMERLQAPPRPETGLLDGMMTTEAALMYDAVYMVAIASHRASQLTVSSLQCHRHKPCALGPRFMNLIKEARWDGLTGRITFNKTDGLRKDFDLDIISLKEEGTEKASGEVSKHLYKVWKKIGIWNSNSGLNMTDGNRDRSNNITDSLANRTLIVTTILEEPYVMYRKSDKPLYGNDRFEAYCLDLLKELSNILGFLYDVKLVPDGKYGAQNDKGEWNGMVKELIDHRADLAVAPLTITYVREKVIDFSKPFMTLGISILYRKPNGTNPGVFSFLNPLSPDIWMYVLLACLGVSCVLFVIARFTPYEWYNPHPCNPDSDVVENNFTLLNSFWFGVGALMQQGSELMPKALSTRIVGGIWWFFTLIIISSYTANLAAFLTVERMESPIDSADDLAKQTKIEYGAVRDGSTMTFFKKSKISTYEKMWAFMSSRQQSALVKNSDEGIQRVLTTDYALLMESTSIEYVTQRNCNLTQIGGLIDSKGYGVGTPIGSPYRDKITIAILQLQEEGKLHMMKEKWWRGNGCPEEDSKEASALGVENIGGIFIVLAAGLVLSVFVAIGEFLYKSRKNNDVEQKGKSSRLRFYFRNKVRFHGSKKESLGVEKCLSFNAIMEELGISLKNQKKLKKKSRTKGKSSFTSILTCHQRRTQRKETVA

By ED50 is commonly meant the dose that gives a 50% effect, or the effect in half of the subjects. By IC50 is commonly meant the concentration at which inhibition is half-maximal. What is called TD50 is the 50% point of the dose-response relation for the toxic effect studied. The low end stands for harm at a small dose, the high end for harm only at a large dose.

Bounds are passed on as bounds.

Regarding `CNC(=O)N1N=C(c2ccc(N)cc2)c2cc3c(cc2CC1=O)OCCO3`, the ED50 with Mus musculus [1] was 32.1 µmol/kg; in the test with Mus musculus [2], 45.5 µmol/kg. For the same compound, the IC50 in test [3] is 5.4 µM. In the test on Mus musculus [4], this compound had a TD50 of 96.4 µmol/kg. Moreover, the “Ratio TD50/ED50” value with Mus musculus [5] is on record as 2.1.
Consider `Cc1cc(C2=NNC(=O)Cc3cc4c(cc32)OCCO4)ccc1N`, for which the ED50 was determined as 24.6 µmol/kg with Mus musculus [1] and 48.2 µmol/kg in the test with Mus musculus [2]. Also, the TD50 with Mus musculus [4] was 115 µmol/kg. Moreover, in test [6], the 50% inhibitory concentration (IC50) was 1.8 µM. In addition, in the test with Mus musculus [5], the “Ratio TD50/ED50” value came out at 2.4.
As to `Nc1ccc(C2=NNC(=O)Cc3cc4c(cc32)OCCO4)c(Cl)c1`, the ED50 in the test on Mus musculus [1] and with Mus musculus [2] was over 100 µmol/kg each time. The same compound returned an IC50 in test [6] of over 20 µM.
As for `CCNC(=O)N1N=C(c2ccc(N)cc2)c2cc3c(cc2CC1=O)OCCO3`, the ED50 in the test with Mus musculus [1] stood at 41.7 µmol/kg; with Mus musculus [2], 48.1 µmol/kg. This compound registered a TD50 in the test on Mus musculus [4] of 95.3 µmol/kg. This compound gave a half-maximal inhibitory concentration (IC50) in test [6] of 9.3 µM. The “Ratio TD50/ED50” value in the test on Mus musculus [5] is 2.
Turning to `Nc1ccc(C2=NNC(=O)Cc3cc4c(cc32)OCCO4)cc1`, the ED50 with Mus musculus [1] is 44.8 µmol/kg; in the test with Mus musculus [2], 61.3 µmol/kg. In addition, the IC50 was 2.9 µM in test [3] and over 10 µM in test [7]. In the test with Mus musculus [4], the TD50 was found to be 102 µmol/kg. The “Ratio TD50/ED50” value with Mus musculus [5] is listed as 1.7.
As to `Nc1ccc(C2=NNC(=O)Cc3cc4c(cc32)OCO4)cc1`, the half-maximal inhibitory concentration (IC50) in test [3] was found to be 12 µM. Moreover, the “Ratio TD50/ED50” value with Mus musculus [5] was determined as 4.5.
On to `CCNC(=O)N1N=C(c2ccc(N)cc2)c2cc3c(cc2CC1=O)OCO3`, for which the figures for the IC50 in test [3] and in test [6] were 11 µM and 12 µM, respectively. The “Ratio TD50/ED50” value in the test with Mus musculus [5] is on record as 3.8.
Regarding `Nc1ccc(C2=NNC(=O)Cc3cc4c(cc32)OCCO4)cc1Cl`, the ED50 stood at 27.2 µmol/kg with Mus musculus [1] and 70.8 µmol/kg in the test on Mus musculus [2]. Further, the TD50 in the test on Mus musculus [4] was 99.1 µmol/kg. Also, the 50% inhibitory concentration (IC50) in test [6] was 2 µM. For the same compound, the “Ratio TD50/ED50” value with Mus musculus [5] was found to be 1.4.
For `CC1=NN=C(c2ccc(N)cc2)c2cc3c(cc2C1)OCO3` [GYKI-52466], the “Ratio TD50/ED50” value in the test with Mus musculus [5] is on record as 2.1.
On the same count and under the same terms, for `CNC(=O)N1N=C(c2ccc(N)cc2)c2cc3c(cc2CC1=O)OCO3` the value was 3.9.
